“Also recorded” adds a separate entry of the source. Read-outs that look alike come from different tables or passages of the source. Where a SMILES comes first, the peptide text is derived from it. Bridges are numbered along the chain shown (N, C = ends). Where no end group is shown, it is not given here.
Key:
[1] = system: elastolytic protease cathepsins; conditions: cited from earlier work
human serum = conditions: up to 60 min
[2] = human serum from an healthy donor [240 µl 20% (v/v) in PBS]; conditions: 37 °C, up to 24 h
[3] = Oxidative folding (disulfide formation) in Tris HCl pH 7.5; format: physicochemical; conditions: Tris HCl 100 mM pH 7.5, open vessel, RP-HPLC-ESI-MS after iodoacetamide alkylation
Description: Reduced HBD3 was dissolved in Tris HCl 100 mM pH 7.5 (final peptide concentration 0.5 mg/mL) and shaken in an open vessel, with periodic withdrawal of aliquots. After alkylation of the free thiol groups with iodoacetamide solution, 100 μg of each the aliquot were analysed through RP-HPLC-ESI-MS to evaluate the oxidation status. The remaining 200 μg were purified via RP-HPLC to eliminate excess iodoacetamide, lyophilized, and subjected to tryptic digestion. Tryptic fragments were then indentified through RP-HPLC-ESI-MS. The same procedure, except tryptic digestion, was used for peptides γ and ε. Full details are given in the SI.

CD98_103-630 = molecular target: T1, CD98_103-630 (Homo sapiens, UniProt P08195); experiment: SPR binding to immobilized CD98_103-630; conditions: for Koff1 / Koff2 / Kon2: 25 °C, immobilized CD98_103-630; for Kon1: Biacore T200, 25 °C, HBS-EP pH 7.4, immobilized CD98_103-630
T1 construct: GST-CD98 (102-630) and the truncated GST-CD98 (304-414); purchased Novus Biologicals, Littleton, CO
T1 sequence (P08195 102-630 isoform P08195-1): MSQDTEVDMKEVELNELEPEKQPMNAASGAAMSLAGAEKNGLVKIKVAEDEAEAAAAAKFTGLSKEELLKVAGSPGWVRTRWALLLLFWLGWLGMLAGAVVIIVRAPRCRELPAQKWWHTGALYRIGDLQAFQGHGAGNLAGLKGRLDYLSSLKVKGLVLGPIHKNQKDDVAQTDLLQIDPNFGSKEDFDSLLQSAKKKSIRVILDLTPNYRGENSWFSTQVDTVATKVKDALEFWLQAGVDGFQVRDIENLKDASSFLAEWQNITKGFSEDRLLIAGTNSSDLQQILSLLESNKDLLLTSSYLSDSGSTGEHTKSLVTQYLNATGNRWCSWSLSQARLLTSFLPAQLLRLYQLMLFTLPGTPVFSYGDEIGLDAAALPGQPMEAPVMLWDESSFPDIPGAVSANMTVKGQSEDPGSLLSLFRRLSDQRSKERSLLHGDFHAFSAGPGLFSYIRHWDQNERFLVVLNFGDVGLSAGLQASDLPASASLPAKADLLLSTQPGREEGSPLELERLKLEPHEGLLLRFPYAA
Description: (§1) Surface Plasmon Resonance experiments were performed as previously described. For details, see SI. […]
(§2) Surface Plasmon resonance. Surface Plasmon resonance (SPR) experiments were performed using a Biacore T200 system (GE Healthcare, Uppsala, Sweden), at 25 °C . Binding assays were carried out between various CD98 sequences and both reduced and oxidized HBD3. The residue numbering […]
(§3) (Novus Biologicals, Littleton, CO) were immobilized on a CM4 and/or a CM5 sensor chip (research grade) by the standard amine coupling procedure, using HBS-EP buffer (HEPES 10 mM, NaCl 150 mM, EDTA 3 mM, Surfactant P20 0.005%, pH 7.4), as running buffer. CD98 was immobilized through activation of the sensor chip with 60 µL of N-hydroxysuccinimide and N-ethyl-N-(dimethylaminopropyl)-carbodiimide at 10 µL min-1, followed by a 30 µL injection of protein diluted in 10 mM sodium acetate buffer, pH 4.0. Unreacted activated groups were blocked by a 60 µL injection of 1 M ethanolamine at 10 µL min-1. The final amount of immobilized CD98 was typically between ~ 1500 and 5000 RU, corresponding to a protein concentration of 15 ÷ 50 mg/mL on the surface layer. Subsequently, the peptides or full-length HBD3 were injected at various concentrations (100 nM–100 µM), using HBS-EP as running buffer. The binding assays were performed under previously optimized conditions14, i.e. a contact time of 120 s, a dissociation time of 1000 s, and a flow rate of 30 µL min-1.
(§4) The SPR sensorgrams were analyzed by curve-fitting using the Biacore T200 Evaluation software.
(§5) Dose response curves were plotted using the SPR sensorgrams and the corresponding fit. Various

CD98_304-414 = molecular target: T2, CD98_304-414 (Homo sapiens, UniProt P08195); experiment: SPR binding to immobilized CD98_304-414; conditions: 25 °C
T2 construct: GST-CD98 (102-630) and the truncated GST-CD98 (304-414); purchased Novus Biologicals, Littleton, CO
T2 sequence (P08195 304-414 isoform P08195-1): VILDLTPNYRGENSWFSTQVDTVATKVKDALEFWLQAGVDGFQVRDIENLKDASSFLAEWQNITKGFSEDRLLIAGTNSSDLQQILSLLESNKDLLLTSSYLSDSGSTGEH
Description: as §1, §2, §3, §4, §5

HSV-1 = experiment: HSV infectivity on Vero cell monolayers (plaque count); format: cell-based, Herpes simplex virus; conditions: for IC50: read-out: concentration showing 50% inhibition
Description: The antiviral activity of the γ-core peptides γ and ε in oxidized and reduced form was evaluated, in comparison with reduced HBD3, against HIV and HSV. To establish in which phase, if any, the peptides inhibit virus infectivity, we performed experiments in four conditions: a) peptides incubated with the virus before being added to the target cells (“virus pre-treatment”), b) peptides incubated with the cells before exposure to the virus (“cell pre-treatment”), c) simultaneous addition of peptides and virus to the target cells (“co-treatment”), and d) peptides added to the virus-exposed cells (“post-treatment”).
The antiviral activity of the peptides against human immunodeficiency virus (HIV) and herpes simplex virus (HSV) was measured as previously described. For details, see SI. […]
Antiviral Activity against Herpes Simplex Virus (HSV). Vero cells were grown in Dulbecco’s modified Eagle’s medium (DMEM) supplemented with 10% fetal calf serum. HSV-1 carrying a lacZ gene driven by the cytomegalovirus (CMV) IE-1 promoter to express beta-galactosidase was propagated as described elsewhere12. All experiments were conducted in parallel with no-peptide controls. The effect of peptides on the inhibition of HSV infectivity on cell monolayers13 was assessed as follows: (i) For “co-exposure” experiments, the cells were incubated with increasing concentrations of the peptides (1, 5, 10, 20, 50, 100 and 150 µM) and with the viral inoculum for 45 min at 37°C. Non -penetrated viruses were inactivated by citrate buffer at pH 3.0. Monolayers were fixed, stained with 5-bromo-4-chloro-3-indolyl-beta-D-galactopyranoside (X-gal) and plaque […]
numbers were scored. Experiments were performed in triplicate and the % inhibition was calculated vs. the no-peptide control; (ii) For “virus pre-exposure” experiments, approximately 2 x 10^4 PFU of HSV-1 were incubated with increasing concentrations of the peptides for 45 min at 37°C, then titrated on Vero cell monolayers; iii) For “cell pre-exposure” experiments, Vero cells were incubated with increasing concentrations of the peptides for 30 min at 4°C, and infected with serial dilutions of HSV-1 for 45 min at 37°C; and iv) For “po st-exposure” experiments, Vero cell monolayers were incubated with virus for 45 minutes at 37°C and afterwards the peptides were added to the inoculum, followed by an additional incubation period of 30 minutes at 37°C. […]

[4] = system: elastolytic protease cathepsins; conditions: cited from earlier work; remark: listed apart in the source
Text: We asked whether the γ-core motif within HBDs represents a primordial HDP that evolved into the full-length molecules of today. To answer the question, we analyzed the structural and biological properties of the β-hairpin peptide of HBD3, which is the smallest substructure encompassing the γ-core motif (Fig. 1B).

[5] = cited from earlier work

Row | Molecule | Koff1 (CD98_103-630) | Koff2 (CD98_103-630) | Kon2 (CD98_103-630) | Kon1 (CD98_103-630) | Koff1 (CD98_304-414) | Koff2 (CD98_304-414) | Kon1 (CD98_304-414) | Kon2 (CD98_304-414) | also measured
1 | GIINTLQKYYCRVRGGRCAVLSCLPKEEQIGKCSTRGRKCCRRKK |  |  |  |  |  |  |  |  | not cleaved (plasma): stable in plasma; fragment found [1]: the sequence from 22 to 45 amino acids residues of HBD3
2 | Ac-CLPKEEQIGKSSTRGRKSCRRKK-NH2 |  |  |  |  |  |  |  |  | fragment found (human serum): disulfide-bridged form (oxidized peptide γ); cleaved bond [2]: Arg20-Arg21, 6 h; also recorded: Lys22-Lys23, 6 h; also recorded: Cys19-Arg20, 6 h
3 | CC[C@H](C)[C@@H]1NC(=O)[C@H](CCC(N)=O)NC(=O)[C@H](CCC(=O)O)NC(=O)[C@H](CCC(=O)O)NC(=O)[C@H](CCCCN)NC(=O)[C@@H]2CCCN2C(=O)[C@H](CC(C)C)NC(=O)[C@H](CO)NC(=O)[C@H](CO)NC(=O)[C@H](CC(C)C)NC(=O)[C@H](C(C)C)NC(=O)[C@H](C)NC(=O)[C@@H](NC(C)=O)CSSC[C@@H](C(N)=O)NC(=O)[C@H](CCCCN)NC(=O)CNC1=O [peptide δ, [S^23]HBD3_18–33] (Ac-CAVLSSLPKEEQIGKC-NH2; disulfide 1-16) |  |  |  |  |  |  |  |  | oxidation state (intramolecular disulfide) after 3 h [3]: still mostly reduced
4 | human β-defensin 3 (GIINTLQKYYCRVRGGRCAVLSCLPKEEQIGKCSTRGRKCCRRKK; not fully specified (bridges); cysteine pairing not given here; UniProt P81534 23-67, looked up) [HBD3, reference compound] | 2.10 ± 0.03 ×10^−2 s^−1 | 1.930 ± 0.03 ×10^−3 s^−1 | 9.03 ± 0.06 x10^−3 s^−1 | 8.51 ± 0.05 ×10^3 M^−1s^−1 | 1.26 ± 0.03 ×10^−2 s^−1 | 0.907 ± 0.007 ×10^−3 s^−1 | 4.65 ± 0.07 ×10^3 M^−1s^−1 | 5.44 ± 0.06 x10^−3 s^−1 | IC50 (HSV-1; cell pre-treatment): 10 µM; IC50 (HSV-1; co-exposure): 10 µM; efficacy against HSV in words (HSV-1; post-exposure / post-treatment conditions): no efficacy; IC50 (HSV-1; virus pre-exposure): 20 µM; degradation by cathepsins in words [4]: rapidly degraded; stability in human serum in words [5]: highly stable
5 | [S^33,40]HBD3_23–41 [Peptide ε] | 5.48 ± 0.03 ×10^−2 s^−1 | 0.128 ± 0.04 ×10^−3 s^−1 | 1.24 ± 0.04 x10^−3 s^−1 | 0.73 ± 0.02 ×10^3 M^−1s^−1 | 5.38 ± 0.05 ×10^−2 s^−1 | 0.116 ± 0.06 ×10^−3 s^−1 | 0.71 ± 0.04 ×10^3 M^−1s^−1 | 5.67 ± 0.05 x10^−3 s^−1 | fold lower affinity for CD98 than HBD3 (CD98_103-630; from Table 1): 70 fold
6 | Ac-CLPKEEQIGKSSTRGRKSC-NH2 |  |  |  |  |  |  |  |  | not cleaved [2]: found intact after 24 h incubation

Reference: PMC4685272 (Scientific Reports, 2015)
